Reference: article PMC9967275, “Screening the Pathogen Box to Discover and Characterize New Cruzain and TbrCatL Inhibitors” (Pathogens, 2023)

molecular target: cruzain (Trypanosoma cruzi, UniProt P25779); assay: biochemical; conditions: 0’ (no pre-incubation); sheet Screening results
Experimental: (§1) Allison Doak and Prof. Brian Shoichet (University of California San Francisco, San Francisco, CA, USA) and Prof. Conor Caffrey (University of California San Diego, San Diego, CA, USA) generously provided recombinant cruzain and TbrCatL, respectively. In vitro activity of proteases cruzain and TbrCatL was assayed as previously described. Briefly, enzyme activity was measured by monitoring the cleavage of the fluorogenic substrate […] (Z-FR-AMC) at 25 °C. Fluorescence was monitored at 340/440 nm (excitation/emission) over 5–7 min in a Synergy2 Biotek plate reader. […] DMSO and 1 μM E-64 were employed as negative and positive controls, respectively, in all assays. Two conditions were employed for both enzymes: 10′ pre-incubation of the enzyme in the presence of the compound (10′ inc) and no pre-incubation (0′). Reported values correspond to the mean and standard error of the mean (SEM) and all analyses were performed using GraphPad Prism 6.0.
(§2) For the initial screening, compounds were assayed at 5 μM. […] IC50 curves were obtained from a non-linear fit of at least seven distinct compound concentrations, in triplicate. Reported IC50 values are the mean and SEM of two independent measurements.
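Note: at 5 µM compound concentration.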

Chain of cruzain (P25779 123-337 limits assumed): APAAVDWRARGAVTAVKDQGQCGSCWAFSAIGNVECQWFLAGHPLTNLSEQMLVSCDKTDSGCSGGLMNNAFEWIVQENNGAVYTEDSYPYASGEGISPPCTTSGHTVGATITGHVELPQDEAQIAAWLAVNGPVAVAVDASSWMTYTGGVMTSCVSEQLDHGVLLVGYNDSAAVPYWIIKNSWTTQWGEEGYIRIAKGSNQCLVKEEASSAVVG

Compound	Cruzain Inhibition 0’ [%]
O[C@@H](c1cc(C(F)(F)F)nc2c(C(F)(F)F)cccc12)[C@H]1CCCCN1 [MMV000016]	-5.4
COc1cc(N[C@@H](C)CCCN)c2ncccc2c1 [MMV000023]	2.8
N=C(N)c1ccc(OCCCCCOc2ccc(C(=N)N)cc2)cc1 [MMV000062]	19
CCN(CC)CCCCCCNc1cc(OC)cc2c(C)ccnc12 [MMV000063]	16
O=S(=O)(c1ccc(Cl)cc1)N1CCN(C(=S)NCc2ccco2)CC1 [MMV000858]	8
COc1cccc2c(C)nc(N=C(N)N)nc12 [MMV000907]	9.5
COC(=O)C1=C(C)NC(C)=C(C(=O)OC(C)C)[C@H]1c1cccc2nonc12 [MMV001493]	26
NCCC[C@@](N)(C(=O)O)C(F)F [MMV001625]	20
O=C(C1CCCCC1)N1CC(=O)N2CCc3ccccc3[C@@H]2C1 [MMV002529]	22
Oc1c(I)cc(I)c2cccnc12 [MMV002817]	0.2
COC(=O)Nc1nc2ccc(C(=O)c3ccccc3)cc2[nH]1 [MMV003152]	3.3
O=C1Nc2ccc(Br)cc2C12NCCc1c2[nH]c2ccccc12 (stereo not drawn) [MMV006239]	7.5
Cc1ccc2[nH]c3c(NCCN(C)C)ncnc3c2c1 [MMV006372]	27
COc1cc2ncnc(NC3CCN(Cc4ccccc4)CC3)c2cc1OC [MMV006741]	8
CN(C)c1cc(NC(=O)Nc2ccccc2)c2ccccc2n1 [MMV006901]	13
CCOc1ccc(-c2nc(NC(=O)CS(=O)(=O)c3ccccc3)sc2C)cc1 [MMV007638]	7
COc1ccc(CN2CCOc3ccc(C(C)(O)CN(C)C)cc3C2)cc1C (stereo not drawn) [MMV008439]	0.3

same assay, conditions: 0’ (pre-incubation time); sheet "Screening results"

Compound	Cruzain 0’ Inhibition [%]
CCCS(=O)(=O)N1CCC(CO)(Cc2ccccc2C(F)(F)F)CC1 [MMV001059]	0.9
C[C@H]1CS(=O)(=O)CCN1/N=C/c1ccc([N+](=O)[O-])o1 [MMV001499]	7
CCN(CC)C(=O)N1CCN(C)CC1 [MMV002816]	2.5
CN1CCCN(C(c2ccccc2)c2ccc(Cl)cc2)CC1 (stereo not drawn) [MMV004168]	3.6
Cc1cc(Cl)c(S(=O)(=O)N2CCCC2)cc1OCC(=O)NC1CCCCC1 [MMV006833]	3
Cc1cc(NC(=O)c2ccc(S(=O)(=O)N(Cc3ccccc3)C(C)C)cc2)no1 [MMV007133]	-3
COc1cc(OC)cc(C(=O)NCC2Cc3cc(Cl)cc(-c4ccncc4)c3O2)c1 (stereo not drawn) [MMV007471]	1.1
Cc1cc(C)n(-c2ccc(NC(=O)C3CCN(Cc4cnc(C)s4)CC3)cc2)n1 [MMV007625]	5
O=C(NC1CC1)c1ccc(CSCc2ccccc2Cl)o1 [MMV007803]	0.3
Nc1ccc(C(=O)Nc2ccc(-c3nc4ccccc4o3)cc2)cc1 [MMV007920]	7

same assay, conditions: 10’ (pre-incubation time); sheet "Screening results"

Compound	Cruzain 10’ Inhibition [%]
CCCS(=O)(=O)N1CCC(CO)(Cc2ccccc2C(F)(F)F)CC1 [MMV001059]	-1.3
C[C@H]1CS(=O)(=O)CCN1/N=C/c1ccc([N+](=O)[O-])o1 [MMV001499]	7.5
CCN(CC)C(=O)N1CCN(C)CC1 [MMV002816]	1.9
CN1CCCN(C(c2ccccc2)c2ccc(Cl)cc2)CC1 (stereo not drawn) [MMV004168]	6.6
Cc1cc(Cl)c(S(=O)(=O)N2CCCC2)cc1OCC(=O)NC1CCCCC1 [MMV006833]	8
Cc1cc(NC(=O)c2ccc(S(=O)(=O)N(Cc3ccccc3)C(C)C)cc2)no1 [MMV007133]	-4.5
COc1cc(OC)cc(C(=O)NCC2Cc3cc(Cl)cc(-c4ccncc4)c3O2)c1 (stereo not drawn) [MMV007471]	6
Cc1cc(C)n(-c2ccc(NC(=O)C3CCN(Cc4cnc(C)s4)CC3)cc2)n1 [MMV007625]	1.6
O=C(NC1CC1)c1ccc(CSCc2ccccc2Cl)o1 [MMV007803]	-1.7
Nc1ccc(C(=O)Nc2ccc(-c3nc4ccccc4o3)cc2)cc1 [MMV007920]	11

same assay, conditions: 10’ (pre-incubation); sheet Screening results

Compound	Cruzain Inhibition 10’ [%]
O[C@@H](c1cc(C(F)(F)F)nc2c(C(F)(F)F)cccc12)[C@H]1CCCCN1 [MMV000016]	-9
COc1cc(N[C@@H](C)CCCN)c2ncccc2c1 [MMV000023]	6.4
N=C(N)c1ccc(OCCCCCOc2ccc(C(=N)N)cc2)cc1 [MMV000062]	13
CCN(CC)CCCCCCNc1cc(OC)cc2c(C)ccnc12 [MMV000063]	3
O=S(=O)(c1ccc(Cl)cc1)N1CCN(C(=S)NCc2ccco2)CC1 [MMV000858]	13
COc1cccc2c(C)nc(N=C(N)N)nc12 [MMV000907]	25
COC(=O)C1=C(C)NC(C)=C(C(=O)OC(C)C)[C@H]1c1cccc2nonc12 [MMV001493]	12
NCCC[C@@](N)(C(=O)O)C(F)F [MMV001625]	7
O=C(C1CCCCC1)N1CC(=O)N2CCc3ccccc3[C@@H]2C1 [MMV002529]	18
Oc1c(I)cc(I)c2cccnc12 [MMV002817]	-16
COC(=O)Nc1nc2ccc(C(=O)c3ccccc3)cc2[nH]1 [MMV003152]	-1.4
O=C1Nc2ccc(Br)cc2C12NCCc1c2[nH]c2ccccc12 (stereo not drawn) [MMV006239]	2.2
Cc1ccc2[nH]c3c(NCCN(C)C)ncnc3c2c1 [MMV006372]	21
COc1cc2ncnc(NC3CCN(Cc4ccccc4)CC3)c2cc1OC [MMV006741]	10
CN(C)c1cc(NC(=O)Nc2ccccc2)c2ccccc2n1 [MMV006901]	24
CCOc1ccc(-c2nc(NC(=O)CS(=O)(=O)c3ccccc3)sc2C)cc1 [MMV007638]	10
COc1ccc(CN2CCOc3ccc(C(C)(O)CN(C)C)cc3C2)cc1C (stereo not drawn) [MMV008439]	0

molecular target: T1, TbrCatL (Trypanosoma brucei rhodesiense, UniProt Q95PM0); assay: TbrCatL enzymatic inhibition assay (cleavage of fluorogenic substrate Z-FR-AMC); type: biochemical; conditions: 0’ (no pre-incubation); sheet Screening results
T1 construct: Conor Caffrey (University of California San Diego)
T1 sequence (Q95PM0 entry or part of it): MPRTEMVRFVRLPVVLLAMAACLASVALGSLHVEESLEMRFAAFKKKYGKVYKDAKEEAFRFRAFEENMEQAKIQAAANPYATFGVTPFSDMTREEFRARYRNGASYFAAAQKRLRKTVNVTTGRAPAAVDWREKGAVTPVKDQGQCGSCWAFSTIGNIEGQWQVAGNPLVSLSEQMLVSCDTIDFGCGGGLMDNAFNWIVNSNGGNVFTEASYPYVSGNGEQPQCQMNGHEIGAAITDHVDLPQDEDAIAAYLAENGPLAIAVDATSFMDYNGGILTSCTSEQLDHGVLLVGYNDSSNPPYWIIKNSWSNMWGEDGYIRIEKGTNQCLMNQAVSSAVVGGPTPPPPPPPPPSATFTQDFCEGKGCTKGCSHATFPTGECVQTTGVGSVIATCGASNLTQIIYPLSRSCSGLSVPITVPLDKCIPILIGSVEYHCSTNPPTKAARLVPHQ
Experimental: as §1, §2

Compound	TbrCatL Inhibition 0’ [%]
O[C@@H](c1cc(C(F)(F)F)nc2c(C(F)(F)F)cccc12)[C@H]1CCCCN1 [MMV000016]	2.4
COc1cc(N[C@@H](C)CCCN)c2ncccc2c1 [MMV000023]	9
N=C(N)c1ccc(OCCCCCOc2ccc(C(=N)N)cc2)cc1 [MMV000062]	3
CCN(CC)CCCCCCNc1cc(OC)cc2c(C)ccnc12 [MMV000063]	2.7
O=S(=O)(c1ccc(Cl)cc1)N1CCN(C(=S)NCc2ccco2)CC1 [MMV000858]	0.9
COc1cccc2c(C)nc(N=C(N)N)nc12 [MMV000907]	32
COC(=O)C1=C(C)NC(C)=C(C(=O)OC(C)C)[C@H]1c1cccc2nonc12 [MMV001493]	1.3
NCCC[C@@](N)(C(=O)O)C(F)F [MMV001625]	2
O=C(C1CCCCC1)N1CC(=O)N2CCc3ccccc3[C@@H]2C1 [MMV002529]	5
Oc1c(I)cc(I)c2cccnc12 [MMV002817]	0.5
COC(=O)Nc1nc2ccc(C(=O)c3ccccc3)cc2[nH]1 [MMV003152]	4.7
O=C1Nc2ccc(Br)cc2C12NCCc1c2[nH]c2ccccc12 (stereo not drawn) [MMV006239]	2.6
Cc1ccc2[nH]c3c(NCCN(C)C)ncnc3c2c1 [MMV006372]	10
COc1cc2ncnc(NC3CCN(Cc4ccccc4)CC3)c2cc1OC [MMV006741]	15
CN(C)c1cc(NC(=O)Nc2ccccc2)c2ccccc2n1 [MMV006901]	9
CCOc1ccc(-c2nc(NC(=O)CS(=O)(=O)c3ccccc3)sc2C)cc1 [MMV007638]	0.6
COc1ccc(CN2CCOc3ccc(C(C)(O)CN(C)C)cc3C2)cc1C (stereo not drawn) [MMV008439]	-5

same assay, conditions: 0’ (pre-incubation time); sheet "Screening results"

Compound	TbrCatL 0’ Inhibition [%]
CCCS(=O)(=O)N1CCC(CO)(Cc2ccccc2C(F)(F)F)CC1 [MMV001059]	-3.7
C[C@H]1CS(=O)(=O)CCN1/N=C/c1ccc([N+](=O)[O-])o1 [MMV001499]	5
CCN(CC)C(=O)N1CCN(C)CC1 [MMV002816]	-0.5
CN1CCCN(C(c2ccccc2)c2ccc(Cl)cc2)CC1 (stereo not drawn) [MMV004168]	-5.4
Cc1cc(Cl)c(S(=O)(=O)N2CCCC2)cc1OCC(=O)NC1CCCCC1 [MMV006833]	1.6
Cc1cc(NC(=O)c2ccc(S(=O)(=O)N(Cc3ccccc3)C(C)C)cc2)no1 [MMV007133]	-7
COc1cc(OC)cc(C(=O)NCC2Cc3cc(Cl)cc(-c4ccncc4)c3O2)c1 (stereo not drawn) [MMV007471]	0.4
Cc1cc(C)n(-c2ccc(NC(=O)C3CCN(Cc4cnc(C)s4)CC3)cc2)n1 [MMV007625]	1.5
O=C(NC1CC1)c1ccc(CSCc2ccccc2Cl)o1 [MMV007803]	-6.5
Nc1ccc(C(=O)Nc2ccc(-c3nc4ccccc4o3)cc2)cc1 [MMV007920]	4.7

same assay, conditions: 10’ (pre-incubation time); sheet "Screening results"

Compound	TbrCatL 10’ Inhibition [%]
CCCS(=O)(=O)N1CCC(CO)(Cc2ccccc2C(F)(F)F)CC1 [MMV001059]	-0.8
C[C@H]1CS(=O)(=O)CCN1/N=C/c1ccc([N+](=O)[O-])o1 [MMV001499]	11
CCN(CC)C(=O)N1CCN(C)CC1 [MMV002816]	0.1
CN1CCCN(C(c2ccccc2)c2ccc(Cl)cc2)CC1 (stereo not drawn) [MMV004168]	1.8
Cc1cc(Cl)c(S(=O)(=O)N2CCCC2)cc1OCC(=O)NC1CCCCC1 [MMV006833]	11
Cc1cc(NC(=O)c2ccc(S(=O)(=O)N(Cc3ccccc3)C(C)C)cc2)no1 [MMV007133]	-11
COc1cc(OC)cc(C(=O)NCC2Cc3cc(Cl)cc(-c4ccncc4)c3O2)c1 (stereo not drawn) [MMV007471]	-2
Cc1cc(C)n(-c2ccc(NC(=O)C3CCN(Cc4cnc(C)s4)CC3)cc2)n1 [MMV007625]	-1.8
O=C(NC1CC1)c1ccc(CSCc2ccccc2Cl)o1 [MMV007803]	-0.2
Nc1ccc(C(=O)Nc2ccc(-c3nc4ccccc4o3)cc2)cc1 [MMV007920]	-0.7

same assay, conditions: 10’ (pre-incubation); sheet Screening results

Compound	TbrCatL Inhibition 10’ [%]
O[C@@H](c1cc(C(F)(F)F)nc2c(C(F)(F)F)cccc12)[C@H]1CCCCN1 [MMV000016]	-2.6
COc1cc(N[C@@H](C)CCCN)c2ncccc2c1 [MMV000023]	5
N=C(N)c1ccc(OCCCCCOc2ccc(C(=N)N)cc2)cc1 [MMV000062]	-3
CCN(CC)CCCCCCNc1cc(OC)cc2c(C)ccnc12 [MMV000063]	5.6
O=S(=O)(c1ccc(Cl)cc1)N1CCN(C(=S)NCc2ccco2)CC1 [MMV000858]	6
COc1cccc2c(C)nc(N=C(N)N)nc12 [MMV000907]	23
COC(=O)C1=C(C)NC(C)=C(C(=O)OC(C)C)[C@H]1c1cccc2nonc12 [MMV001493]	-2.4
NCCC[C@@](N)(C(=O)O)C(F)F [MMV001625]	-1.9
O=C(C1CCCCC1)N1CC(=O)N2CCc3ccccc3[C@@H]2C1 [MMV002529]	5.7
Oc1c(I)cc(I)c2cccnc12 [MMV002817]	-24
COC(=O)Nc1nc2ccc(C(=O)c3ccccc3)cc2[nH]1 [MMV003152]	-5.3
O=C1Nc2ccc(Br)cc2C12NCCc1c2[nH]c2ccccc12 (stereo not drawn) [MMV006239]	2.6
Cc1ccc2[nH]c3c(NCCN(C)C)ncnc3c2c1 [MMV006372]	14
COc1cc2ncnc(NC3CCN(Cc4ccccc4)CC3)c2cc1OC [MMV006741]	5.4
CN(C)c1cc(NC(=O)Nc2ccccc2)c2ccccc2n1 [MMV006901]	20
CCOc1ccc(-c2nc(NC(=O)CS(=O)(=O)c3ccccc3)sc2C)cc1 [MMV007638]	9
COc1ccc(CN2CCOc3ccc(C(C)(O)CN(C)C)cc3C2)cc1C (stereo not drawn) [MMV008439]	-3.4
